Experimental data as given in patent publication US20060281722A1, “Compounds and uses thereof” (priority 2005, published 2006).

Tested on: Tumor Necrosis Factor alpha (TNFα)
Assay: Lipopolysaccharide (LPS)-induced serum TNFα in rats (oral dosing 2 h before LPS, serum ELISA)
Type: in vivo
Parameters: unit not given here
Conditions: LPS 0.01 mg/Kg intraperitoneal, male Lewis rats
Description: The purpose of this study was to examine the ability of compound 1 to suppress lipopolysaccharide (LPS)-induced Tumor Necrosis Factor alpha (TNFα) levels when administered to male Lewis rats.
Compound 1 was added directly to 100% ethanol. The suspension was vortexed vigorously until all of compound 1 was completely dissolved or fully suspended. The solution was made up to volume in 0.5% methylcellulose. The final concentration of ethanol was 10%.
At time minus 2 hours, rats were administered the appropriate amount of prednisolone and/or compound 1 via oral gavage in a dose volume of 0.25 mL. Untreated control and LPS Control animals received 0.25 mL of the vehicle only.
LPS was prepared at a 100X concentration by resuspension in Phosphate Buffered Saline (PBS). The LPS solution was vortexed vigorously to ensure complete suspension of the LPS. Immediately prior to injection, the LPS was serial diluted in PBS to a 1× working solution.
At time 0, animals were injected via the intraperitoneal route with 1.0 mL of the 1×LPS working solution (final LPS dose is 0.01 mg/Kg body weight) using a 25 gauge needle. Vehicle control animals received 1 mL of PBS.
Blood was expelled into a serum separator tube containing Clot Activator (Becton Dickinson, Franklin Lakes, N.J.). Samples were allowed to sit at room temperature for 30 min prior to spinning at 2000 rpm for 10 min in a bench top centrifuge at room temperature. Serum was transferred to an Eppendorf tube and immediately assayed for TNFα or stored at −80° C. until assayed.
Serum samples were assayed using the BioSource Rat TNFα ELISA kit according to the manufacturer's instructions.
Evaluation of the results included statistical analysis of differences in serum TNFα between treatment and control groups. Group means were compared using a one-way ANOVA. If the ANOVA was significant, p≦0.05, a multiple comparison test (Tukey-Kramer) was used to determine which groups were different.

## C[C@]12C=CC(=O)C=C1CC[C@@H]1[C@@H]2[C@@H](O)C[C@@]2(C)[C@H]1CC[C@]2(O)C(=O)CO [prednisolone, reference compound]
0.3 mg/kg prednisolone, oral gavage at minus 2 hours
  Serum TNFα ± Standard Error: 11375.9 ± 5238.4
10 mg/kg prednisolone, oral gavage at minus 2 hours
  Serum TNFα ± Standard Error: 6239.3 ± 5020.4

## Clc1ccc2c(c1)C(N1CCN(CCN3CCOCC3)CC1)=Nc1ccccc1O2 [compound1]
0.3 mg/kg compound 1, oral gavage at minus 2 hours
  Serum TNFα ± Standard Error: 13675.6 ± 7606.9
1 mg/kg compound 1, oral gavage at minus 2 hours
  Serum TNFα ± Standard Error: 12769.1 ± 5231.2
3 mg/kg compound 1, oral gavage at minus 2 hours
  Serum TNFα ± Standard Error: 12980.4 ± 6788.4
